Assay results reported in patent US8188091B2, “Tetrahydroquinazoline compounds and their use in preparing medicaments for treating and preventing virosis” (Beijing Molecule Science and Technology Co., Ltd., priority 2007, dated 2012).
pIC50: −log10 of the molar value. Like-named read-outs stand apart in the source and are kept apart here.

How the values were obtained:
[1] = test system: HBV DNA; test: Antiviral activity: inhibition of HBV DNA in supernatant of HepG 2.2.15 cells (dot blot hybridization); type: cell-based, hepatitis B virus (HBV); conditions: for pIC50: Hepatitis B virus, HepG2.2.15, 192 h, read-out: IC50 (inhibition of the compounds on HBV DNA); for SI: selectivity index, TC50/IC50, HepG 2.2.15 cells
Description: The antiviral effects of the compounds according to the present invention was determined following the methods described by Sells et al. (M. A. Sells, M. L. Chen, g. Acs, Proc. Natl. Acad. Sci., 1987, 84, 1005-1009) and Korba et al., (B. E. Korba, J. L. Gerin, Antiviral Research, 1992, 19. 55-70).
(§1) The antiviral assays were carried out in 96-well microtitre plates. Only growth medium and HepG 2.2.15 cells were added to the first vertical row of the plate, as a blank control.
(§2) Stock solutions of the test compounds (50 mM) were initially dissolved in DMSO, and further dilutions were prepared in the growth medium of HepG 2.2.15 cell. The compounds according to the present invention, usually in a test concentration of 100 μg/ml (1st test concentration), were pipetted into each well in the second vertical test row of the microtitre plate and subsequently diluted by 2 times each time, up to 2^10-fold, using the growth medium plus 2% of foetal calf serum (volume 25 p. 1).
(§3) 225 μl of a HepG 2.2.15 cell suspension (5×10^4 cells/ml) in the growth medium plus 2% foetal calf serum were then added to each well of the microtitre plate.
(§4) The assay mixture was incubated at 37° C., 5% CO2 for 4 days. The supernatant was subsequently siphoned off and discarded, and 225 μl of freshly prepared growth medium were added to each well. Once more, the compounds according to the present invention were added, in a volume 25 μl of solution. The mixtures were incubated for another 4 days.
The supernatants were subsequently harvested and siphoned onto in vacuum 96-well dot blot chambers covered with a nylon membrane (in accordance with the instructions of the manufacturer).
Determination of the Antiviral Activity
After transfer of the supernatants onto the nylon membrane of the blot apparatus (see above), the supernatants of the HepG 2.2.15 cells were denatured (1.5 M NaCl/0.5 M NaOH), neutralized (3 M […]/0.5 M Tris HCl, pH 7.5) and washed (2×SSC). The DNA was subsequently baked onto the membrane By incubation of the filters at 120° C. for 2-4 hours.
The viral DNA of the treated HepG 2.2.15 cells on the nylon filter membrane was usually detected using non-radioactive digoxigenin-labelled hepatitis B-specific DNA probes, which were in each case labelled with digoxigenin, purified and used for hybridization in accordance with the instructions of the manufacturer.
Briefly speaking, the prehybridization and hybridization were carried out in 5×SSC, 1× a blocking agent, 0.1% N-lauroylsacosine, 0.02% SDS and 100 μg of DNA from herring sperm. The prehybridization was carried out at 60° C. for 30 minutes and the specific hybridization was carried out using 20 to 40 ng/ml of the digoxigenated denatured HBV-specific DNA (14 hours, 60° C.). The filler membrane was subsequently washed and the antibody against digoxigenin of HBV DNA was determined.
The digoxigenin-labelled DNA was detected immunologically in accordance with the instructions of the manufacturer.
Briefly speaking, the filler membranes were washed and prehybridized in the blocking agent (in accordance with the instructions of the manufacturer), and then hybridized for 30 minutes using an anti-DIG antibody previously coupled to an alkaline phosphatase. After washing, a substrate of alkaline phosphoesterase, CSPD, was added, incubated with the filter for 5 minutes, subsequently wrapped in a plastic film and incubated at 37° C. for a further 15 minutes. The chemiluminescene signals of the Hepatitis B-specific DNA were measured by exposition of the filters on an X-ray film (incubating for 10 minutes to 2 hours, depending on strength of the signals). The half-maximum inhibitory concentration (IC50) was determined.
The half-maximum inhibitory concentration (IC50) means the concentration of the compound according to the present invention at which the hepatitis B-specific band was reduced by 50% in comparison with an untreated sample.

[2] = Determination of the cytotoxicity in HepG 2.2.15 cells (microscopy, Reed & Muench); type: cell-based; conditions: human, pathological changes at 8 days, read-out: TC50 (half-maximum toxic concentration)
Description: as §1, §2, §3, §4
Before the supernatants were harvested for determining the antiviral effect, the HepG 2.2.15 cells were examined by an optical microscopy or by biochemical detecting methods (for example Alamar Blue staining or Trypan Blue staining) for cytotoxic changes.
Determination of the Cytotoxicity
Substances-induced cytotoxic or cytostatic changes in the HepG 2.2.15 cells can be determined by for example a optical microscopy and expressed as changes in the cell morphology. Such substance-induced changes, for example, as cell lysis, vacuolization or changed cell morphology in the HepG 2.2.15 cells was apparent in comparison with those in untreated cells. The pathological changes were observed under a microscope at 8 days as indice, wherein a complete destroy being designated as 4, 75% as 3, 50% as 2, 25% as 1, and no pathological change as 0. The average degree of pathological change and inhibition percentages at various concentrations were calculated, and a half-maximum toxic concentration (TC50) and a maximum non-toxic concentration TC0 were determined according to Reed & Muench methods.
TC50 means the concentration of the compounds according to the present invention at which 50% of the cells have a morphology which is similar to that of the corresponding cell control.

[3] = Solubility of the hydrochloride solid in solvents; type: physicochemical
Description: 0.38 g of the object compound obtained in Example 1 was dissolved in 2 ml anhydrous ethanol, to which hydrogen chloride ethyl solution was added dropwise to precipitate a solid, and filtered to obtain an off-white powdery solid 0.41 g, mp 197-199° C.

[4] = HepG 2.2.15 cells, 8 days treatment

Row | SMILES | pIC50 [1, 4] | SI [1] | CC50 at 8 days [2] [µM] | melting point [°C] | solubility in dichloromethane, ethyl acetate, acetone, etc. ([3]; dichloromethane, ethyl acetate, acetone, etc.) | solubility in methanol and ethanol ([3]; methanol and ethanol) | solubility in water ([3]; water) | pIC50 [1]
1 | O=C1CCCC2=C1C(c1ccc(F)cc1Cl)N=C(c1cccnc1)N2 (stereo not shown) [Example 3, 2-(pyridin-3-yl)-4-(2-chloro-4-fluorophenyl)-4,6,7,8-tetrahydroquinazolin-5(1H)-one] | 4.60 | 9.25 | 233 |  |  |  |  | 
2 | CC1(C)CC(=O)C2=C(C1)NC(c1cccnc1)=NC2c1ccc(F)cc1Cl (stereo not shown) [Example 1, 2-(pyridin-3-yl)-4-(2-chloro-4-fluorophenyl)-7,7-dimethyl-4,6,7,8-tetrahydroquinazolin-5(1H)-one] | 7.59 | 4192 | 109 | 186 to 187 |  |  |  | 
3 | O=C1CCCC2=C1C(c1ccc(F)cc1Cl)N=C(c1c(F)cc(F)cc1F)N2 (stereo not shown) [Example 10, 2-(2,4,6-trifluorophenyl)-4-(2-chloro-4-fluorophenyl)-4,6,7,8-tetrahydroquinazolin-5(1H)-one] | < 4.61 | <3.8 | 94.1 |  |  |  |  | 
4 | CC1(C)CC(=O)C2=C(C1)NC(c1c(F)cc(F)cc1F)=NC2c1ccc(F)cc1Cl (stereo not shown) [Example 11, 2-(2,4,6-trifluorophenyl)-4-(2-chloro-4-fluorophenyl)-7,7-dimethyl-4,6,7,8-tetrahydroquinazolin-5(1H)-one] | < 4.64 | <3.2 | 73.7 |  |  |  |  | 
5 | O=C1CCCC2=C1C(c1ccc(F)cc1)N=C(c1cccnc1)N2 (stereo not shown) [Example 8, 2-(pyridin-3-yl)-4-(4-fluorophenyl)-4,6,7,8-tetrahydroquinazolin-5(1H)-one] | < 4.51 | <4.7 | 148 |  |  |  |  | 
6 | CC1(C)CC(=O)C2=C(C1)NC(c1ccccn1)=NC2c1ccc(F)cc1Cl (stereo not shown) [Example 12, 2-(pyridin-2-yl)-4-(2-chloro-4-fluorophenyl)-7,7-dimethyl-4,6,7,8-tetrahydroquinazolin-5(1H)-one] | < 4.59 | <3.7 | 97 |  |  |  |  | 
7 | CC1(C)CC(=O)C2=C(C1)NC(c1cccnc1)=NC2c1ccc(F)cc1Cl.Cl (stereo not shown) [Example 2, 2-(pyridin-3-yl)-4-(2-chloro-4-fluorophenyl)-7,7-dimethyl-4,6,7,8-tetrahydroquinazolin-5(1H)-one hydrochloride] |  |  |  |  | insoluble | soluble slightly | very easily soluable | 
8 | O=C1CCCC2=C1C(c1ccccc1)N=C(c1cccnc1)N2 (stereo not shown) [Example 6, 2-(pyridin-3-yl)-4-phenyl-4,6,7,8-tetrahydroquinazolin-5(1H)-one] |  | <4.7 | 193 |  |  |  |  | < 4.48
9 | CC1(C)CC(=O)C2=C(C1)NC(c1cccnc1)=NC2c1ccccc1Cl (stereo not shown) [Example 7, 2-(pyridin-3-yl)-4-(2-chlorophenyl)-7,7-dimethyl-4,6,7,8-tetrahydroquinazolin-5(1H)-one] | 4.58 | 2.57 | 67.3 |  |  |  |  | 
10 | O=C1CCCC2=C1C(c1ccccc1Cl)N=C(c1cccnc1)N2 (stereo not shown) [Example 9, 2-(pyridin-3-yl)-4-(2-chlorophenyl)-4,6,7,8-tetrahydroquinazolin-5(1H)-one] | < 4.53 | <5.6 | 167 |  |  |  |  | 
11 | CC1(C)CC(=O)C2=C(C1)NC(c1cccnc1)=NC2c1ccccc1 (stereo not shown) [Example 5, 2-(pyridin-3-yl)-4-phenyl-7,7-dimethyl-4,6,7,8-tetrahydroquinazolin-5(1H)-one] | 4.65 | 7.70 | 173 |  |  |  |  | 
12 | CC1(C)CC(=O)C2=C(C1)NC(c1cccnc1)=NC2c1ccc(F)cc1 (stereo not shown) [Example 4, 2-(pyridin-3-yl)-4-(4-fluorophenyl)-7,7-dimethyl-4,6,7,8-tetrahydroquinazolin-5(1H)-one] | 4.60 | 5.73 | 145 |  |  |  |  | 
